Reference: ChEMBL document CHEMBL1131941, “Synthesis and biological evaluation of alpha,alpha-difluorobenzylphosphonic acid derivatives as small molecular inhibitors of protein-tyrosine phosphatase 1B” (Bioorg Med Chem Lett, 1999)
pIC50: −log10 of the molar value.

Biological target: T1, Tyrosine-protein phosphatase non-receptor type 1 (Homo sapiens, UniProt P18031)
T1 sequence (P18031 whole entry): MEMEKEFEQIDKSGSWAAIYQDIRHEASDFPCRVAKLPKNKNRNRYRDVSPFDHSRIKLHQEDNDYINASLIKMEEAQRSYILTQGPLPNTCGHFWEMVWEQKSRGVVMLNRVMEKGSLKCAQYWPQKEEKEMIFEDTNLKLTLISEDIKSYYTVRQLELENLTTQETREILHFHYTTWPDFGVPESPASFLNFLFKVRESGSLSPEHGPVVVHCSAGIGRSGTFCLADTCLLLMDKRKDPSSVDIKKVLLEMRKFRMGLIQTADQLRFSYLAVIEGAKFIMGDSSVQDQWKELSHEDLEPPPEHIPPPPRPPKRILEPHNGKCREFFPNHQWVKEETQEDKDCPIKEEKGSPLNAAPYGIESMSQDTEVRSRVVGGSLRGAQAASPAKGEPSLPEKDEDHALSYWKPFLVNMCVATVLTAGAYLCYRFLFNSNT
Test: Inhibitory potency for the protein tyrosine phosphatase (PTP 1B)-catalyzed hydrolysis of p-nitrophenol phosphate; call rule not given here
Assay type: functional

Row | SMILES | pIC50
1 | CS(=O)(=O)N(c1cc(C(F)(F)P(=O)(O)O)ccc1/C=C/c1ccccc1)S(C)(=O)=O | 4.24
2 | C#Cc1cccc(C(F)(F)P(=O)(O)O)c1 | 4.72
3 | CS(=O)(=O)Nc1cc(C(F)(F)P(=O)(O)O)ccc1C#Cc1ccccc1 | 3.78
4 | CS(=O)(=O)N(c1cc(C(F)(F)P(=O)(O)O)ccc1C#Cc1ccccc1)S(C)(=O)=O | 4.05
5 | O=P(O)(O)C(F)(F)c1cccc(/C=C/c2ccccc2)c1 | 3.41
6 | O=P(O)(O)C(F)(F)c1ccc2ccccc2c1 | 3.14
7 | O=P(O)(O)C(F)(F)c1ccc(-c2ccccc2)cc1 | 3.11
8 | COc1ccc(-c2ccc(C(F)(F)P(=O)(O)O)cc2)cc1 | 3.35
9 | O=P(O)(O)C(F)(F)c1ccc(/C=C/c2ccccc2)cc1 | 3.35
10 | C#Cc1ccc(C(F)(F)P(=O)(O)O)cc1 | 4.11
11 | O=P(O)(O)C(F)(F)c1cccc(C#Cc2ccccc2)c1 | 3.87
12 | CS(=O)(=O)Nc1cc(C(F)(F)P(=O)(O)O)ccc1/C=C/c1ccccc1 | 3.76
13 | O=P(O)(O)C(F)(F)c1ccc(C#Cc2ccccc2)cc1 | 3.89

Biological target: T1, Tyrosine-protein phosphatase non-receptor type 1
Test: Inhibitory potency for the protein tyrosine phosphatase (PTP 1B)-catalyzed hydrolysis of p-nitrophenol phosphate; No inhibition
Assay type: functional

Row | SMILES | IC50
14 | O=P(O)(O)C(F)(F)c1ccccc1 | Not Active
